According to PubChem BioAssay AID248 (DTP/NCI, 2004):
“And” between values parts separate entries of the source, which are not always exact repeats. Equal entries are not always repeated. Inconclusive results and toxic doses are left out. No stated cut-off is given here; in the data, active means T/C of 150% or more; inactive means T/C below 125%.

System: L1210 leukemia ip in BDF1 mice, survival T/C
Test: NCI In Vivo Anticancer Drug Screen. Data for tumor model L1210 Leukemia (intraperitoneal) in B6D2F1 (BDF1) mice
Details: endpoint: mean survival time, higher = longer survival
In short: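 Value reflects the ratio of survival in compound-treated mice to survival in vehicle-treated controls, with both groups carrying the same transplanted tumor.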

[1] = dose: 100.0 mg/kg/injection, schedule: Q01DX009 (ip), vehicle: Klucel (hydroxypropylcellulose) (HPC)
[2] = dose: 200.0 mg/kg/injection, schedule: Q01DX009 (ip), vehicle: Klucel (hydroxypropylcellulose) (HPC)
[3] = dose: 400.0 mg/kg/injection, schedule: Q01DX009 (ip), vehicle: Klucel (hydroxypropylcellulose) (HPC)
[4] = dose: 100.0 mg/kg/injection, schedule: Q04DX002 (ip), vehicle: saline with Tween-80
[5] = dose: 200.0 mg/kg/injection, schedule: Q04DX002 (ip), vehicle: saline with Tween-80
[6] = dose: 400.0 mg/kg/injection, schedule: Q04DX002 (ip), vehicle: saline with Tween-80
[7] = dose: 100.0 mg/kg/injection, schedule: Q01DX001 (ip), vehicle: Klucel (hydroxypropylcellulose) (HPC)
[8] = dose: 200.0 mg/kg/injection, schedule: Q01DX001 (ip), vehicle: Klucel (hydroxypropylcellulose) (HPC)
[9] = dose: 400.0 mg/kg/injection, schedule: Q01DX001 (ip), vehicle: Klucel (hydroxypropylcellulose) (HPC)
[10] = dose: 100.0 mg/kg/injection, schedule: Q01DX001 (ip), vehicle: carboxymethylcellulose (CMC)
[11] = dose: 200.0 mg/kg/injection, schedule: Q01DX001 (ip), vehicle: carboxymethylcellulose (CMC)
[12] = dose: 400.0 mg/kg/injection, schedule: Q01DX001 (ip), vehicle: carboxymethylcellulose (CMC)
[13] = dose: 100.0 mg/kg/injection, schedule: Q04DX002 (ip), vehicle: Klucel (hydroxypropylcellulose) (HPC)
[14] = dose: 200.0 mg/kg/injection, schedule: Q04DX002 (ip), vehicle: Klucel (hydroxypropylcellulose) (HPC)
[15] = dose: 400.0 mg/kg/injection, schedule: Q04DX002 (ip), vehicle: Klucel (hydroxypropylcellulose) (HPC)
[16] = dose: 20.0 mg/kg/injection, schedule: Q01DX009 (ip), vehicle: saline
[17] = dose: 100.0 mg/kg/injection, schedule: Q01DX009 (ip), vehicle: saline
[18] = dose: 100.0 mg/kg/injection, schedule: Q04DX003 (ip), vehicle: saline
[19] = dose: 200.0 mg/kg/injection, schedule: Q04DX003 (ip), vehicle: saline
[20] = dose: 400.0 mg/kg/injection, schedule: Q04DX003 (ip), vehicle: saline
[21] = dose: 50.0 mg/kg/injection, schedule: Q01DX001 (ip), vehicle: carboxymethylcellulose (CMC)

Measured: T/C

O=C(NCCCCCCNC(=O)Oc1ccccc1F)Oc1ccccc1F
inactive: [1] 102 % of control | [2] 97 % of control | [3] 91 % of control

CCn1cc(C(=O)O)c(=O)c2ccc(-c3ccncc3)cc21
inactive: [1] 98 % of control | dose: 100.0 mg/kg/injection, schedule: Q04DX003 (ip), vehicle: Klucel (hydroxypropylcellulose) (HPC) 91 % of control | [2] 101 % of control | dose: 200.0 mg/kg/injection, schedule: Q04DX003 (ip), vehicle: Klucel (hydroxypropylcellulose) (HPC) 91 % of control | [3] 102 % of control | dose: 400.0 mg/kg/injection, schedule: Q04DX003 (ip), vehicle: Klucel (hydroxypropylcellulose) (HPC) 89 % of control

O=C1CSC=C(c2ccccc2)O1
inactive: [4] 115 % of control | [5] 101 % of control | [6] 112 % of control

CCCCCCCCCCCCCCCCCCc1cc(C)ccc1C
inactive: dose: 100.0 mg/kg/injection, schedule: Q01DX001 (ip), vehicle: other 107 % of control | dose: 200.0 mg/kg/injection, schedule: Q01DX001 (ip), vehicle: other 90 % of control | dose: 400.0 mg/kg/injection, schedule: Q01DX001 (ip), vehicle: other 104 % of control

O=C(O)C1C(C(=O)O)C2C=CC1C21CCCC1 (centres undefined)
inactive: dose: 75.0 mg/kg/injection, schedule: Q01DX001 (ip), vehicle: saline 97 % of control | dose: 150.0 mg/kg/injection, schedule: Q01DX001 (ip), vehicle: saline 97 % of control | dose: 300.0 mg/kg/injection, schedule: Q01DX001 (ip), vehicle: saline 95 % of control

CCOC(=O)C(CCC#N)C1=NC(C)(C)CC(C)O1 (centres undefined)
inactive: [7] 97 % of control | [8] 101 % of control | [9] 103 % of control

CC1=CCCC(C)(C)C1/C=C/C(=O)O (centres undefined)
inactive: [1] 105 % of control | [2] 97 % of control | [3] 101 % of control

NC(=S)N/N=C/c1ccc(-c2ccccc2)cc1
inactive: dose: 25.0 mg/kg/injection, schedule: Q01DX009 (ip), vehicle: saline with Tween-80 103 % of control | dose: 50.0 mg/kg/injection, schedule: Q01DX009 (ip), vehicle: saline with Tween-80 113 % of control | [10] 97 % of control | dose: 100.0 mg/kg/injection, schedule: Q01DX009 (ip), vehicle: saline with Tween-80 100 % of control | [11] 103 % of control | [12] 101 % of control

CCOC(=O)/C(O)=C\c1cc[n+]([O-])nc1Cl
inactive: [13] 101 % of control | [14] 101 % of control | [15] 101 % of control

Nc1c(C(=O)O)ccc2c1C(=O)c1ccccc1C2=O
inactive: dose: 25.0 mg/kg/injection, schedule: Q04DX003 (ip), vehicle: gum acacia 103 % of control | dose: 50.0 mg/kg/injection, schedule: Q04DX003 (ip), vehicle: gum acacia 100 % of control | dose: 100.0 mg/kg/injection, schedule: Q04DX003 (ip), vehicle: gum acacia 103 % of control and 108 % of control | dose: 200.0 mg/kg/injection, schedule: Q04DX003 (ip), vehicle: gum acacia 97 % of control

CCCC(=O)Nc1ccc(N)cc1OC
inactive: dose: 5.0 mg/kg/injection, schedule: Q01DX009 (ip), vehicle: saline 100 % of control | dose: 5.0 mg/kg/injection, schedule: Q04DX003 (ip), vehicle: Klucel (hydroxypropylcellulose) (HPC) 96 % of control | dose: 10.0 mg/kg/injection, schedule: Q01DX009 (ip), vehicle: saline 100 % of control | dose: 10.0 mg/kg/injection, schedule: Q04DX003 (ip), vehicle: Klucel (hydroxypropylcellulose) (HPC) 102 % of control | [16] 100 % of control | dose: 20.0 mg/kg/injection, schedule: Q04DX003 (ip), vehicle: Klucel (hydroxypropylcellulose) (HPC) 96 % of control

CCCCCCCCCCCCCCBr
inactive: dose: 37.5 mg/kg/injection, schedule: Q01DX Z (ip), vehicle: carboxymethylcellulose (CMC) 100 % of control | dose: 75.0 mg/kg/injection, schedule: Q01DX Z (ip), vehicle: carboxymethylcellulose (CMC) 100 % of control | [7] 107 % of control | dose: 150.0 mg/kg/injection, schedule: Q01DX Z (ip), vehicle: carboxymethylcellulose (CMC) 100 % of control | [8] 98 % of control | dose: 300.0 mg/kg/injection, schedule: Q01DX Z (ip), vehicle: carboxymethylcellulose (CMC) 91 % of control | [9] 94 % of control

COc1ccc(C(=O)CN2C=C(C(=O)c3cc4ccccc4n3S(=O)(=O)c3ccccc3)CCC2)cc1
inactive: [4] 94 % of control | [5] 87 % of control | [6] 87 % of control

CC1(C)N=C(N)N=C(N)N1c1ccc(CCC(=O)Nc2cccc(S(=O)(=O)F)c2)cc1
inactive: dose: 0.8 mg/kg/injection, schedule: Q01DX009 (ip), vehicle: saline 98 % of control | dose: 4.0 mg/kg/injection, schedule: Q01DX009 (ip), vehicle: saline 106 % of control | [16] 108 % of control | dose: 25.0 mg/kg/injection, schedule: Q#A X018 (ip), vehicle: saline 119 % of control | dose: 50.0 mg/kg/injection, schedule: Q01DX009 (ip), vehicle: saline 111 % of control | dose: 50.0 mg/kg/injection, schedule: Q#A X018 (ip), vehicle: saline 113 % of control | [17] 112 % of control and 122 % of control | dose: 100.0 mg/kg/injection, schedule: Q#A X018 (ip), vehicle: saline 88 % of control

COc1ccc(Br)cc1/C=N\NS(=O)(=O)c1ccc(C)cc1
inactive: dose: 100.0 mg/kg/injection, schedule: Q01DX009 (ip), vehicle: other 100 % of control | [18] 96 % of control | dose: 200.0 mg/kg/injection, schedule: Q01DX009 (ip), vehicle: other 105 % of control | [19] 96 % of control | dose: 400.0 mg/kg/injection, schedule: Q01DX009 (ip), vehicle: other 114 % of control | [20] 93 % of control

O=C(Nc1cc2ccccc2cc1C(=O)O)Nc1cccc2ccccc12
inactive: [1] 97 % of control | [2] 101 % of control | [3] 100 % of control

CC(=O)OI(OC(C)=O)c1ccc(-c2ccccc2)cc1
inactive: [1] 91 % of control | [2] 102 % of control

O=c1[nH]cnc2c1ncn2-c1ccc(N(CCO)CCO)cc1
inactive: [21] 98 % of control | [10] 115 % of control | [11] 95 % of control | [12] 98 % of control

Nc1n[n+](=O)c2ccccc2n1O
inactive: dose: 1.17 mg/kg/injection, schedule: Q01DX001 (ip), vehicle: other 95 % of control | dose: 2.34 mg/kg/injection, schedule: Q01DX001 (ip), vehicle: other 101 % of control | dose: 4.69 mg/kg/injection, schedule: Q01DX001 (ip), vehicle: other 102 % of control

CCC(=O)OC1(c2ccccc2)CCN(CCC(O)c2ccccc2)CC1 (centres undefined)
inactive: dose: 3.13 mg/kg/injection, schedule: Q01DX009 (ip), vehicle: Klucel (hydroxypropylcellulose) (HPC) 98 % of control | dose: 6.25 mg/kg/injection, schedule: Q01DX009 (ip), vehicle: Klucel (hydroxypropylcellulose) (HPC) 104 % of control | dose: 12.5 mg/kg/injection, schedule: Q01DX009 (ip), vehicle: Klucel (hydroxypropylcellulose) (HPC) 95 % of control | dose: 25.0 mg/kg/injection, schedule: Q01DX009 (ip), vehicle: Klucel (hydroxypropylcellulose) (HPC) 94 % of control

CC(=S)N1CCCCC1
inactive: [21] 100 % of control

CN(N=O)c1ccc(/C=C/c2ccnc3ccccc23)cc1
inactive: [21] 98 % of control | [10] 93 % of control | [11] 93 % of control | [12] 91 % of control

CC(=O)[O][Pb]([O]C(C)=O)([c]1ccccc1)[c]1ccccc1
inactive: [13] 98 % of control | [4] 102 % of control | [14] 102 % of control | [5] 102 % of control | [15] 105 % of control

NC(CSCCc1ccccn1)C(=O)O (centres undefined)
inactive: [17] 107 % of control | [18] 101 % of control | dose: 200.0 mg/kg/injection, schedule: Q01DX009 (ip), vehicle: saline 104 % of control | [19] 104 % of control | dose: 400.0 mg/kg/injection, schedule: Q01DX009 (ip), vehicle: saline 105 % of control | [20] 94 % of control
